Results: US9133434B1, “Grass endophyte” (Cropmark Seeds Ltd., priority 2012, dated 2015)

Key:
[1] = test system: Neotyphodium uncinatum, var.UNC1; assay: Effect of benomyl on growth, comparison of varieties; format: cell-based; settings: comparison of the two varieties
Protocol: (§1) Plates of PDA containing different concentrations of the fungicide benomyl were prepared as outlined by Christensen et al. (1991). Benlate(Methyl[1-[(butylamino)carbonyl]-1H-benzimidazol-2-yl]carbamate) (50% WP) was added to PDA prior to sterilization. Concentrations of benomyl were adjusted to 1, 5, 10, 50 and 100 ppm. Five duplicate plates were inoculated with a colony plug.
The two varieties were similar in tested characteristics of colony sporulation, colony sectoring, colony color (upper surface), colony shape, colony immersion or margin in agar, colony texture, aerial mycelium density and type, and effect of benomyl on growth. The two varieties differed in […] and rate of growth.

[2] = test system: Neotyphodium uncinatum, var. U2; assay: Colony: resistance to benomyl on growth (PDA plates with benomyl); format: cell-based; settings: benomyl 1, 5, 10, 50 and 100 ppm in PDA, recorded after 4 weeks; scale absent or very weak / weak / medium / strong / very strong
Protocol: Neotyphodium uncinatum, var. U2 was isolated from line FP102 of Festuca pratensis (Meadow fescue). Line FP102 originally came from Norway in 1999. Characteristics for Neotyphodium uncinatum, var. U2 were determined and compared with other varieties. For these tests, the endophytic fungus isolated was cultured on 1.5% (w/v) potato dextrose agar at 20° C. in the dark (Christensen M J, Latch G C M, Tapper S A 1991: Variation within isolates of Acremonium endophytes from perennial ryegrasses. Mycol. Res. 95: 918-923). Length of cultivation was generally standardized at 4 weeks, but may be varied according to the isolate. Five plates of each strain were grown.
as §1

`CCCCNC(=O)n1c(NC(=O)OC)nc2ccccc21` [benomyl, Methyl[1-[(butylamino)carbonyl]-1H-benzimidazol-2-yl]carbamate] was tested, and the “effect of benomyl on growth, var.UNC1 compared with var. U2” value [1] was “similar” and the “Colony: resistance to benomyl on growth” value [2] was “strong”.
